Reference: US9499493B2, “2,4-pyrimidinediamine compounds and their uses” (Rigel Pharmaceuticals, Inc., priority 2002, dated 2016)
pIC50: −log10 of the molar value. Counter-ions that a name gives are not always drawn.

Tests used:
[1] = tested on: cultured human mast cells (CHMC); experiment: CHMC low cell density IgE activation: tryptase assay; format: cell-based; conditions: anti-IgE
In short: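 Degranulation was triggered with anti-IgE for 30 minutes at 37° C in cultured human mast cells seeded at low density (1000-1500 cells/well, chosen by donor) after a 1 hr equilibration in MT buffer. Released tryptase in cleared supernatant was quantified with a tryptase substrate at room temperature for 30 minutes.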

[2] = tested on: cultured human mast cells (CHMC); experiment: CHMC low cell density ionomycin activation: tryptase assay; format: cell-based

| pIC50 [1] | pIC50 [2] | pIC50 ([1]; Homo sapiens, Mast cell) | pIC50 ([2]; Homo sapiens, Mast cell) | SMILES |
| --- | --- | --- | --- | --- |
| 5.99 | < 5.00 | – | – | COC(=O)COc1cccc(Nc2ncc(F)c(Nc3cc(C)c(O)c(C)c3)n2)c1 [R945139, N4-(3,5-Dimethyl-4-hydroxyphenyl)-5-fluoro-N2-(3-methoxycarbonylmethyleneoxyphenyl)-2,4-pyrimidinediamine] |
| 6.51 | < 5.00 | – | – | COC(=O)COc1cccc(Nc2ncc(F)c(Nc3cc(C)c(O)c(Cl)c3)n2)c1 [R945148, N4-(3-Chloro-4-hydroxy-5-methylphenyl)-5-fluoro-N2-(3-methoxycarbonylmethyleneoxyphenyl)-2,4-pyrimidinediamine] |
| 6.41 | < 5.00 | – | – | Cc1cc(Nc2nc(Nc3cccc(OCC(=O)N4CCNCC4)c3)ncc2F)cc(Cl)c1O [R945149, N4-(3-Chloro-4-hydroxy-5-methylphenyl)-5-fluoro-N2-[3-(N-piperazino)carbonylmethyleneoxyphenyl]-2,4-pyrimidinediamine] |
| 6.16 | 5.18 | – | – | COC(=O)COc1cccc(Nc2ncc(F)c(Nc3cc(C)c(OC)c(C)c3)n2)c1 [R945153, N4-(3,5-Dimethyl-4-methoxyphenyl)-5-fluoro-N2-(3-methoxycarbonylmethyleneoxyphenyl)-2,4-pyrimidinediamine] |
| 6.10 | < 5.00 | – | – | COc1c(C)cc(Nc2nc(Nc3cccc(OCC(=O)N4CCNCC4)c3)ncc2F)cc1C [R945156, N4-(3,5-Dimethyl-4-methoxyphenyl)-5-fluoro-N2-[3-(N-piperazino)carbonylmethyleneoxyphenyl]-2,4-pyrimidinediamine] |
| 5.83 | < 5.00 | – | – | COc1c(C)cc(Nc2nc(Nc3cccc(OCCN4CCNCC4)c3)ncc2F)cc1C [R945157, N4-(3,5-Dimethyl-4-methoxyphenyl)-5-fluoro-N2-[3-[2-(N-piperazino)ethoxy]phenyl]-2,4-pyrimidinediamine Dihydrochloride Salt] |
| 6.12 | < 5.00 | – | – | CON=C(N)COc1ccc(Nc2ncc(F)c(Nc3cccc(O)c3)n2)cc1 [R945167, 5-Fluoro-N4-(3-hydroxyphenyl)-N2-[4-(2-methoxyimino(amino)ethyleneoxy)phenyl]-2,4-pyrimidinediamine] |
| 5.00 | < 5.00 | – | – | Oc1cccc(Nc2nc(Nc3ccc(OCC4=NCCCN4)cc3)ncc2F)c1 [R945169, 5-Fluoro-N4-(3-hydroxyphenyl)-N2-[4-(1,4,5,6-tetrahydro-2-pyrimidyl)methyleneoxyphenyl]-2,4-pyrimidinediamine] |
| 6.18 | < 5.00 | – | – | CNC(=O)COc1ccc(Nc2ncc(F)c(Nc3cccc(O)c3)n2)cc1 [R945170, 5-Fluoro-N4-(3-hydroxyphenyl)-N2-[4-(N-methylamino)carbonylmethyleneoxyphenyl]-2,4-pyrimidinediamine] |
| 5.88 | < 5.00 | – | – | NC(=O)COc1ccc(Nc2nc(Nc3ccc4c(c3)OCCO4)ncc2F)cc1 [R945171, N4-(4-Aminocarbonylmethyleneoxyphenyl)-N2-(3,4-ethylenedioxyphenyl)-5-fluoro-2,4-pyrimidinediamine] |
| 5.93 | < 5.00 | – | – | N#CCOc1ccc(Nc2nc(Nc3ccc4c(c3)OCCO4)ncc2F)cc1 [R945172, N4-(4-Cyanomethyleneoxyphenyl)-N2-(3,4-ethylenedioxyphenyl)-5-fluoro-2,4-pyrimidinediamine] |
| 5.85 | < 5.00 | – | – | CNC(=O)COc1ccc(Nc2nc(Nc3ccc4c(c3)OCCO4)ncc2F)cc1 [R945173, N2-(3,4-Ethylenedioxyphenyl)-5-fluoro-N4-(4-methylaminocarbonylmethyleneoxyphenyl)-2,4-pyrimidinediamine] |
| 5.78 | < 5.00 | – | – | CON=C(N)COc1ccc(Nc2nc(Nc3ccc4c(c3)OCCO4)ncc2F)cc1 [R945175, N2-(3,4-Ethylenedioxyphenyl)-5-fluoro-N4-[4-methoxyimino(amino)ethyleneoxyphenyl]-2,4-pyrimidinediamine] |
| 6.25 | < 5.00 | – | – | O=C1CN=C2COc3ccc(Nc4nc(Nc5cccc(O)c5)ncc4F)cc3N12 [R945236, N4-[2,4-Dihydro-1-oxo-4H-imidazo[2,1-c][1,4]benzoxazin-8-yl]-5-fluoro-N2-(3-hydroxyphenyl)-2,4-pyrimidinediamine] |
| 6.61 | < 5.00 | – | – | CNC(=O)COc1cccc(Nc2ncc(F)c(Nc3cnc4c(c3)OCC(=O)N4)n2)c1 [R945242, 5-Fluoro-N2-(3-methylaminocarbonylmethyleneoxyphenyl)-N4-[2H-pyrido[3,2-b]-1,4-oxazin-3(4H)-one-7-yl]-2,4-pyrimidinediamine] |
| < 5.00 | < 5.00 | – | – | CS(=O)(=O)Nc1ccc(Nc2ncc(F)c(Nc3ccc(NS(C)(=O)=O)cc3)n2)cc1 [R950083, N2,N4-Bis[(4-methylsulfonylamino)phenyl]-5-fluoro-2,4-pyrimidinediamine] |
| 6.15 | < 5.00 | – | – | CS(=O)(=O)Nc1cccc(Nc2ncc(F)c(Nc3cccc(NS(C)(=O)=O)c3)n2)c1 [R950100] |

| pIC50 [1] | pIC50 [2] | pIC50 ([1]; Homo sapiens, Mast cell) | pIC50 ([2]; Homo sapiens, Mast cell) | SMILES |
| --- | --- | --- | --- | --- |
| 5.52 | < 5.00 | – | – | Nc1ccc(Nc2ncc(F)c(Nc3ccc(N)cc3)n2)cc1 [R950122, N2,N4-Bis(4-aminophenyl)-5-fluoro-2,4-pyrimidinediamine] |
| 5.65 | < 5.00 | – | – | Nc1cccc(Nc2nc(Nc3cccc(Nc4ncc(F)c(Nc5cccc(N)c5)n4)c3)ncc2F)c1 [R950137, N4-(3-Aminophenyl)-N2-[[N3-[N4-(3-aminophenyl)]-5-fluoro-2,4-pyrimidinediamine]aminophenyl]-5-fluoro-2,4-pyrimidinediamine] |
| < 5.00 | < 5.00 | – | – | O=[N+]([O-])c1ccc(NCCO)c(Nc2ncc(F)c(Nc3cc([N+](=O)[O-])ccc3NCCO)n2)c1 [R950150, N2,N4-Bis(2-hydroxyethyleneamino-5-nitrophenyl)-5-fluoro-2,4-pyrimidinediamine] |
| < 5.00 | < 5.00 | – | – | O=C(NCCO)c1cc2cc(Nc3ncc(F)c(Nc4ccc5oc(C(=O)NCCO)cc5c4)n3)ccc2o1 [R950167, N2,N4-Bis[2-(2-hydroxyethyleneamoinocarbonyl)-benzofurane-5-yl]-5-fluoro-2,4-pyrimidinediamine] |
| 5.19 | 5.06 | – | – | NCCNC(=O)c1cc2cc(Nc3ncc(F)c(Nc4ccc5oc(C(=O)NCCN)cc5c4)n3)ccc2o1 [R950168, N2,N4-Bis[2-(2-aminoethyleneamoinocarbonyl)-benzofurane-5-yl]-5-fluoro-2,4-pyrimidinediamine] |
| 5.90 | 5.02 | – | – | O=C(NCCNCc1ccccc1)c1cc2cc(Nc3ncc(F)c(Nc4ccc5oc(C(=O)NCCNCc6ccccc6)cc5c4)n3)ccc2o1 [R950169, N2,N4-Bis[2-(2-(N-benzylamino)ethyleneamoinocarbonyl)-benzofurane-5-yl]-5-fluoro-2,4-pyrimidinediamine] |
| < 5.00 | < 5.00 | – | – | CNCCNC(=O)c1cc2cc(Nc3ncc(F)c(Nc4ccc5oc(C(=O)NCCNC)cc5c4)n3)ccc2o1 [R950170, N2,N4-Bis[2-[2-(methylamino)ethyleneaminocarbonyl]-benzofurane-5-yl]-5-fluoro-2,4-pyrimidinediamine] |
| 6.23 | < 5.00 | – | – | CC(CO)Nc1cccc(Nc2ncc(F)c(Nc3cccc(NC(C)CO)c3)n2)c1 (centres unmarked) [R950171, N2,N4-Bis[3-N-(2-hydroxy-1-methylethyl)aminophenyl]-5-fluoro-2,4-pyrimidinediamine] |
| 6.01 | < 5.00 | – | – | O=C(c1cc2cc(Nc3ncc(F)c(Nc4ccc5oc(C(=O)N6CCOCC6)cc5c4)n3)ccc2o1)N1CCOCC1 [R950172, N2,N4-Bis[2-(N-morpholinocarbonyl)benzofurane-5-yl]-5-fluoro-2,4-pyrimidinediamine] |
| 5.63 | < 5.00 | – | – | O=C(NCCN1CCOCC1)c1cc2cc(Nc3ncc(F)c(Nc4ccc5oc(C(=O)NCCN6CCOCC6)cc5c4)n3)ccc2o1 [R950173, N2,N4-Bis[2-(2-N-morpholinoethyleneamoinocarbonyl)-benzofurane-5-yl]-5-fluoro-2,4-pyrimidinediamine] |
| 5.34 | < 5.00 | – | – | Fc1cnc(Nc2cccc(NCCOCc3ccccc3)c2)nc1Nc1cccc(NCCOCc2ccccc2)c1 [R950174, N2,N4-Bis[3-(N-benzyloxyethyleneamino)phenyl]-5-fluoro-2,4-pyrimidinediamine] |
| 5.77 | < 5.00 | – | – | Nc1cccc(Nc2ncc(F)c(Nc3cccc(NCCOCc4ccccc4)c3)n2)c1 [R950175, N2-(3-Aminophenyl)-N4-[3-(N-benzyloxyethyleneamino)phenyl]-5-fluoro-2,4-pyrimidinediamine] |
| 5.87 | < 5.00 | – | – | Nc1cccc(Nc2nc(Nc3cccc(NCCOCc4ccccc4)c3)ncc2F)c1 [R950176, N4-(3-Aminophenyl)-N2-[3-(N-benzyloxyethyleneamino)phenyl]-5-fluoro-2,4-pyrimidinediamine] |
| 5.99 | 5.06 | – | – | CCOC(=O)COc1cccc(Nc2ncc(F)c(Nc3cc(Cl)c(O)c(Cl)c3)n2)c1 [R950185, N4-(3,5-Dichloro-4-hydroxyphenyl)-N2-(3-ethoxycarbonylmethyleneoxyphenyl)-5-fluoro-2,4-pyrimidinediamine] |
| 6.14 | < 5.00 | – | – | O=C(COc1cccc(Nc2ncc(F)c(Nc3cc(Cl)c(O)c(Cl)c3)n2)c1)N1CCOCC1 [R950187, N4-(3,5-Dichloro-4-hydroxyphenyl)-5-fluoro-N2-[3-(N-morpholino)carbonylmethyleneoxyphenyl]-2,4-pyrimidinediamine] |
| 5.63 | < 5.00 | – | – | O=C(COc1cccc(Nc2ncc(F)c(Nc3cc(Cl)c(O)c(Cl)c3)n2)c1)N1CCNCC1 [R950188, N4-(3,5-Dichloro-4-hydroxyphenyl)-5-fluoro-N2-[3-(N-piperazino)carbonylmethyleneoxyphenyl]-2,4-pyrimidinediamine] |
| – | – | 5.00 | < 5.00 | CNc1ncc(F)c(Nc2ccc3c(c2)OCCO3)n1 [R950189] |
